Data reported in patent US20230330180A1 (priority 2022, published 2023).

Tested on: SARS-CoV-2 KOR-KCDC03-2020 strain
Assay: Prophylactic immunofluorescent infection assay in Vero E6 cells
Assay type: cell-based
Settings: Severe acute respiratory syndrome coronavirus 2, compound added one hour prior to virus, MOI 0.0125, 24 hours

How did the EC50 turn out when `CCC(CC)COC(=O)[C@H](C)N[P@](=O)(OC[C@H]1O[C@@](C#N)(c2ccc3c(N)ncnn23)[C@H](O)[C@@H]1O)Oc1ccccc1` [Remdesivir, remdesivir] was run?
Its EC50 is 12.9 µM.
